The values below come from ChEMBL document CHEMBL3045088, “Synthesis and cytotoxic activity of genistein derivatives” (2010).

Format in all cases: functional
In one test the test system is HL-60. Description: Growth inhibition of Homo sapiens (human) HL60 cells by MTT assay. Background: Tetrazolium assays rely on reduction of a dye to a coloured formazan, in cell work by metabolically active cells.
The subject of the next test is HT-29. The test can be described thus: Growth inhibition of Homo sapiens (human) HT-29 cells by MTT assay.
In another test the test system is SGC-7901. The test can be described thus: Growth inhibition of Homo sapiens (human) SGC7901 cells by MTT assay.

For the compound `COc1ccc(-c2coc3cc(OC)cc(O)c3c2=O)cc1` [4',7-DIMETHOXY-5-HYDROXYGENISTEIN], the GI in the test with HL-60 came out at 5.14 µM; in the test on HT-29, 4.18 µM; in the test on SGC-7901, 7.78 µM.
As to `CCCCCCCOc1ccc(-c2coc3cc(OC(F)F)cc(OCCCCCCC)c3c2=O)cc1` [4',5-DI-N-HEPTOXY-7-GEM-DIFLUOROMETHYLENATED GENISTEIN], the values for the GI in the test on HL-60, in the test with HT-29 and in the test on SGC-7901 were 1.41 µM, 5.25 µM and 3.39 µM, respectively.
As to `CCCCCCCCOc1ccc(-c2coc3cc(OC(F)F)cc(OCCCCCCCC)c3c2=O)cc1` [4',5-DI-N-OCTOXY-7-GEM-DIFLUOROMETHYLENATED GENISTEIN], the GI in the test with HL-60 was 0.47 µM; in the test on HT-29, 1.86 µM; in the test with SGC-7901, 1.64 µM.
`O=c1c(-c2ccc(O)cc2)coc2cc(O)cc(O)c12` [GENISTEIN]: the GI was determined as 4.82 µM in the test on HL-60, 4.11 µM in the test with HT-29 and 5.78 µM in the test on SGC-7901.
As to `COc1ccc(-c2coc3cc(OC(F)F)cc(OC)c3c2=O)cc1` [4',5-DIMETHOXY-7-GEM-DIFLUOROMETHYLENATED GENISTEIN], the GI with HL-60 is 4.61 µM; in the test on HT-29, 9.83 µM; with SGC-7901, 6.41 µM.
Turning to `O=c1c(-c2ccc(OCc3ccccc3)cc2)coc2cc(OC(F)F)cc(OCc3ccccc3)c12` [4',5-DIBENZYLOXY-7-GEM-DIFLUOROMETHYLENATED GENISTEIN], the GI came out at 1.29 µM in the test with HL-60, 2.82 µM in the test on HT-29 and 4.24 µM in the test on SGC-7901.
For `CCCOc1ccc(-c2coc3cc(OC(F)F)cc(OCCC)c3c2=O)cc1` [4',5-DI-N-PROPOXY-7-GEM-DIFLUOROMETHYLENATED GENISTEIN] the same measures were 0.54 µM, 2.5 µM and 2.15 µM.
With `C=CCOc1ccc(-c2coc3cc(OCC=C)cc(O)c3c2=O)cc1` [4',7-DIALLYLOXY-5-HYDROXYGENISTEIN], the GI turned out to be 3.44 µM with HL-60, 14.2 µM in the test with HT-29 and 6.51 µM with SGC-7901.
`COc1cc(O)c2c(=O)c(-c3ccc(O)cc3)coc2c1` [PRUNETIN]: the GI in the test with HL-60 worked out at 4.35 µM; in the test with HT-29 it was 5.11 µM; in the test with SGC-7901, 3.94 µM.
As to `CCCCCCCCCCOc1ccc(-c2coc3cc(OC(F)F)cc(OCCCCCCCCCC)c3c2=O)cc1` [4',5-DI-N-DECOXY-7-GEM-DIFLUOROMETHYLENATED GENISTEIN], the results for the GI with HL-60, in the test on HT-29 and in the test on SGC-7901 were 1.63 µM, 14.26 µM and 3.3 µM, respectively.
As to `CC(=O)Oc1cc(O)c2c(=O)c(-c3ccc(O)cc3)coc2c1` [7-ACETOXY-4',5-DIHYDROXYGENISTEIN], the GI came out at 4.95 µM in the test with HL-60, 4.21 µM with HT-29 and 8.11 µM in the test with SGC-7901.
Consider `O=c1c(-c2ccc(OC(F)F)cc2)coc2cc(OC(F)F)cc(O)c12` [4',7-DI-GEM-DIFLUOROMETHYLENATED GENISTEIN], for which the results for the GI with HL-60, in the test on HT-29 and in the test on SGC-7901 were 5.5 µM, 5.35 µM and 5.54 µM, respectively.
Take `CCCCCCCCOc1ccc(-c2coc3cc(OCCCCCCCC)cc(O)c3c2=O)cc1` [4',7-DIOCTYLOXY-5-HYDROXYGENISTEIN]: the GI is 1.62 µM with HL-60, 10.8 µM in the test on HT-29 and 4.82 µM in the test with SGC-7901.
For `CC(=O)Oc1ccc(-c2coc3cc(OC(C)=O)cc(O)c3c2=O)cc1` [4',7-DIACETOXY-5-HYDROXYGENISTEIN] the same measures were 5.86 µM, 19.4 µM and 11.24 µM.
In the same order, the values of `CCCCCCCCCCOc1ccc(-c2coc3cc(OCCCCCCCCCC)cc(O)c3c2=O)cc1` [4',7-DIDECYLOXY-5-HYDROXYGENISTEIN] are 3.09 µM, 11.6 µM and 4.27 µM.
Consider `CCOc1ccc(-c2coc3cc(OC(F)F)cc(OCC)c3c2=O)cc1` [4',5-DIETHOXY-7-GEM-DIFLUOROMETHYLENATED GENISTEIN], for which the GI in the test on HL-60 was 1.75 µM; in the test with HT-29, 11.2 µM; with SGC-7901 it was 5.51 µM.
Consider `O=c1c(-c2ccc(O)cc2)coc2cc(OC(F)F)cc(O)c12` [7-GEM-DIFLUOROMETHYLENATED GENISTEIN], for which the GI in the test with HL-60 came out at 3.53 µM; in the test with HT-29 it was 4.56 µM; in the test with SGC-7901, 4.59 µM.
